From patent US7897770B2 (General Electric Company, priority 2007, dated 2011)

Molecular target: T1, VMAT-2 (Homo sapiens, UniProt Q05940)
T1 construct: Novascreen Biosciences Corporation (contract assay provider) protocol Cat. No. 100-0751
Test: VMAT-2 binding affinity measurement, Novascreen protocol Cat. No. 100-0751
Details: for Ki: VMAT-2 binding affinity
Description: VMAT-2 binding affinity measurements were carried out by Novascreen Biosciences Corporation (Hanover, Md., USA) using protocol Cat. No. 100-0751. Novascreen, Inc. is a commercial provider of biological assays for the pharmaceutical industry.

T1 sequence (Q05940 whole entry, species assumed): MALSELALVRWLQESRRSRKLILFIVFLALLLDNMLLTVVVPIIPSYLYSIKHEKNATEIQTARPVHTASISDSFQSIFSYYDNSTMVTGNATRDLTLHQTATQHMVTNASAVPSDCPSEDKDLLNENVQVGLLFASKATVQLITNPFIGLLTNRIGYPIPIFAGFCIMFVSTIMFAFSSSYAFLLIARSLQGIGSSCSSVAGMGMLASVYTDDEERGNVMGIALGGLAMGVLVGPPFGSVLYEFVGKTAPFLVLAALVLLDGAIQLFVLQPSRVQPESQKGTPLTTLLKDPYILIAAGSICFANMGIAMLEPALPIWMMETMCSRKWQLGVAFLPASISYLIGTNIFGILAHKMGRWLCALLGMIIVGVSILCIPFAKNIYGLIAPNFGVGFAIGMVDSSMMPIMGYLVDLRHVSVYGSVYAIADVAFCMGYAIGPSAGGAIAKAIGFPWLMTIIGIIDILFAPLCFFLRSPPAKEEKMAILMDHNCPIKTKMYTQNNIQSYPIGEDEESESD

Row | Compound | VMAT-2 binding affinity, in words | Ki
1 | COc1cc2c(cc1OC)[C@H]1C[C@@H](OCCF)[C@H](CC(C)C)CN1CC2 [Compound 22] | very high binding affinity | 3.2 nM
2 | COc1cc2c(cc1OC)[C@H]1C[C@@H](OCCCF)[C@H](CC(C)C)CN1CC2 [Compound 23] | very high binding affinity | 6.4 nM
